Experimental data published in PubChem BioAssay AID1963841 (Molecular Pharmacology Branch, DTP, NCI, 2024).

Tested on: 439559-082-T-J2-PDC spheroid viability
Test: Anticancer human tumor 439559-082-T-J2-PDC patient-derived colon adenocarcinoma cell line growth inhibition [POLQ]
Conditions: spheroids with HUVEC and MSC; for IC50: curve of first compound; for viability, T/C: stronger effect = lower value
Outline: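 Growth inhibition in 3D: complex spheroids (tumor PDC, HUVEC, MSC) treated with POLQ inhibitor combinations; where Cmax unknown, highest tested concentration 10 microM, except SN-38 at 1 microM.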

[1] = second compound 0.0316 µM, first compound 0.0316 µM
[2] = second compound 0.0316 µM, first compound 0.1 µM
[3] = second compound 0.0316 µM, first compound 0.316 µM
[4] = second compound 0.0316 µM, first compound 1 µM
[5] = second compound 0.0316 µM, first compound 3.16 µM
[6] = second compound 0.0316 µM, first compound 10 µM
[7] = second compound 0.1 µM, first compound 0.0316 µM
[8] = second compound 0.1 µM, first compound 0.1 µM
[9] = second compound 0.1 µM, first compound 0.316 µM
[10] = second compound 0.1 µM, first compound 1 µM
[11] = second compound 0.1 µM, first compound 3.16 µM
[12] = second compound 0.1 µM, first compound 10 µM
[13] = second compound 0.316 µM, first compound 0.0316 µM
[14] = second compound 0.316 µM, first compound 0.1 µM
[15] = second compound 0.316 µM, first compound 0.316 µM
[16] = second compound 0.316 µM, first compound 1 µM
[17] = second compound 0.316 µM, first compound 3.16 µM
[18] = second compound 0.316 µM, first compound 10 µM
[19] = second compound 1 µM, first compound 0.0316 µM
[20] = second compound 1 µM, first compound 0.1 µM
[21] = second compound 1 µM, first compound 0.316 µM
[22] = second compound 1 µM, first compound 1 µM
[23] = second compound 1 µM, first compound 3.16 µM
[24] = second compound 1 µM, first compound 10 µM
[25] = second compound 3.16 µM, first compound 0.0316 µM
[26] = second compound 3.16 µM, first compound 0.1 µM
[27] = second compound 3.16 µM, first compound 0.316 µM
[28] = second compound 3.16 µM, first compound 1 µM
[29] = second compound 3.16 µM, first compound 3.16 µM
[30] = second compound 3.16 µM, first compound 10 µM
[31] = second compound 10 µM, first compound 0.0316 µM
[32] = second compound 10 µM, first compound 0.1 µM
[33] = second compound 10 µM, first compound 0.316 µM
[34] = second compound 10 µM, first compound 1 µM
[35] = second compound 10 µM, first compound 3.16 µM
[36] = second compound 10 µM, first compound 10 µM
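Also: spheroids exposed to compounds for seven days before readout.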
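For viability, T/C in this document: 100% = DMSO vehicle control viability.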

SMILES: CNCc1ccc(-c2[nH]c3cc(F)cc4c3c2CCNC4=O)cc1 + Cc1cccc(N(C)C(=O)C2C(O)CCN2c2nc(C)cc(C(F)(F)F)c2C#N)c1
- IC50 (second compound 0.0316 µM): > 10 µM
- IC50 (second compound 0.1 µM): > 10 µM
- IC50 (second compound 0.316 µM): > 10 µM
- IC50 (second compound 1 µM): > 10 µM
- IC50 (second compound 3.16 µM): > 10 µM
- IC50 (second compound 10 µM): > 10 µM
- viability, T/C [1]: 94.8%
- viability, T/C [2]: 108%
- viability, T/C [3]: 99.3%
- viability, T/C [4]: 96.5%
- viability, T/C [5]: 102%
- viability, T/C [6]: 110%
- viability, T/C [7]: 103%
- viability, T/C [8]: 105%
- viability, T/C [9]: 108%
- viability, T/C [10]: 95.8%
- viability, T/C [11]: 101%
- viability, T/C [12]: 96.8%
- viability, T/C [13]: 105%
- viability, T/C [14]: 105%
- viability, T/C [15]: 98.3%
- viability, T/C [16]: 114%
- viability, T/C [17]: 102%
- viability, T/C [18]: 102%
- viability, T/C [19]: 99.3%
- viability, T/C [20]: 92.6%
- viability, T/C [21]: 92.2%
- viability, T/C [22]: 106%
- viability, T/C [23]: 95.7%
- viability, T/C [24]: 106%
- viability, T/C [25]: 105%
- viability, T/C [26]: 98.3%
- viability, T/C [27]: 96.9%
- viability, T/C [28]: 99.1%
- viability, T/C [29]: 102%
- viability, T/C [30]: 99.5%
- viability, T/C [31]: 88.4%
- viability, T/C [32]: 92.8%
- viability, T/C [33]: 93.5%
- viability, T/C [34]: 91.1%
- viability, T/C [35]: 97.2%
- viability, T/C [36]: 100%

SMILES: CC1COCCN1c1cc(C2(S(C)(=N)=O)CC2)nc(-c2ccnc3[nH]ccc23)n1 (stereo unspecified) + COC1C(OC(N)=O)C(O)C(Oc2ccc3c(O)c(NC(=O)c4ccc(O)c(CC=C(C)C)c4)c(=O)oc3c2C)OC1(C)C
- IC50 (second compound 0.0316 µM): > 10 µM
- IC50 (second compound 0.1 µM): > 10 µM
- IC50 (second compound 0.316 µM): > 10 µM
- IC50 (second compound 1 µM): > 10 µM
- IC50 (second compound 3.16 µM): > 10 µM
- IC50 (second compound 10 µM): > 10 µM
- viability, T/C [1]: 97.4%
- viability, T/C [2]: 98.2%
- viability, T/C [3]: 94%
- viability, T/C [4]: 101%
- viability, T/C [5]: 89.8%
- viability, T/C [6]: 65.8%
- viability, T/C [7]: 100%
- viability, T/C [8]: 101%
- viability, T/C [9]: 105%
- viability, T/C [10]: 92.6%
- viability, T/C [11]: 89.7%
- viability, T/C [12]: 66.4%
- viability, T/C [13]: 101%
- viability, T/C [14]: 91.2%
- viability, T/C [15]: 93.5%
- viability, T/C [16]: 94.8%
- viability, T/C [17]: 90.2%
- viability, T/C [18]: 67%
- viability, T/C [19]: 95%
- viability, T/C [20]: 99.3%
- viability, T/C [21]: 91.7%
- viability, T/C [22]: 86.6%
- viability, T/C [23]: 88.8%
- viability, T/C [24]: 66.8%
- viability, T/C [25]: 94.7%
- viability, T/C [26]: 96.7%
- viability, T/C [27]: 89.7%
- viability, T/C [28]: 90.8%
- viability, T/C [29]: 87.2%
- viability, T/C [30]: 64%
- viability, T/C [31]: 99.7%
- viability, T/C [32]: 97.4%
- viability, T/C [33]: 103%
- viability, T/C [34]: 89.4%
- viability, T/C [35]: 86.1%
- viability, T/C [36]: 63.9%

SMILES: C=CC(=O)N1CCN(c2nc(=O)n(-c3c(C)ccnc3C(C)C)c3nc(-c4c(O)cccc4F)c(F)cc23)C(C)C1 (stereo unspecified) + Nc1ccc(C#CCN(C(=O)Cc2ncc(C(F)(F)F)cc2C(F)(F)F)c2ccc(F)cc2)nn1
- IC50 (second compound 0.0316 µM): > 10 µM
- IC50 (second compound 0.1 µM): > 10 µM
- IC50 (second compound 0.316 µM): > 10 µM
- IC50 (second compound 1 µM): > 10 µM
- IC50 (second compound 3.16 µM): > 10 µM
- IC50 (second compound 10 µM): > 10 µM
- viability, T/C [1]: 105%
- viability, T/C [2]: 100%
- viability, T/C [3]: 91.2%
- viability, T/C [4]: 94.5%
- viability, T/C [5]: 123%
- viability, T/C [6]: 104%
- viability, T/C [7]: 109%
- viability, T/C [8]: 88.9%
- viability, T/C [9]: 83.6%
- viability, T/C [10]: 98.1%
- viability, T/C [11]: 115%
- viability, T/C [12]: 99.2%
- viability, T/C [13]: 97.4%
- viability, T/C [14]: 95.7%
- viability, T/C [15]: 99.1%
- viability, T/C [16]: 99.1%
- viability, T/C [17]: 131%
- viability, T/C [18]: 100%
- viability, T/C [19]: 91.6%
- viability, T/C [20]: 97.1%
- viability, T/C [21]: 86.3%
- viability, T/C [22]: 100%
- viability, T/C [23]: 123%
- viability, T/C [24]: 99.1%
- viability, T/C [25]: 100%
- viability, T/C [26]: 90.3%
- viability, T/C [27]: 99.5%
- viability, T/C [28]: 98.7%
- viability, T/C [29]: 101%
- viability, T/C [30]: 89.5%
- viability, T/C [31]: 99.1%
- viability, T/C [32]: 96.1%
- viability, T/C [33]: 87.2%
- viability, T/C [34]: 94.7%
- viability, T/C [35]: 116%
- viability, T/C [36]: 95.3%
